Experimental data published in ChEMBL document CHEMBL1687752, “Impact of antifungal prophylaxis on colonization and azole susceptibility of Candida species” (2009).
≈ marks a conversion by molar mass, not a printed value.

Tests used:
Type in all cases: functional
[1] = tested on: Nakaseomyces glabratus; assay: Antifungal activity against Candida glabrata isolated from neutropenic subject 1491 with AML or MDS pharynx receiving antifungal drug after 23 days prophylaxis by broth microdilution method; settings: 552 h
[2] = tested on: Nakaseomyces glabratus; assay: Antifungal activity against Candida glabrata isolated from HSCT recipients with acute or chronic GVHD receiving fluconazole assessed as maximum MIC by broth microdilution method
[3] = tested on: Pichia kudriavzevii; assay: Antifungal activity against 8 days cultured Candida krusei isolated from neutropenic subject with AML or MDS pharynx after 12 days of prophylaxis by broth microdilution method
[4] = tested on: Pichia kudriavzevii; assay: Antifungal activity against Candida krusei isolated from neutropenic subjects with AML or MDS prior to initiation of posaconazole therapy assessed as maximum MIC by broth microdilution method
[5] = tested on: Nakaseomyces glabratus; assay: Antifungal activity against 176 days cultured Candida glabrata isolated from HSCT recipient with acute or chronic GVHD mouth receiving antifungal therapy for 168 days after 113 days of prophylaxis by broth microdilution method
[6] = tested on: Pichia kudriavzevii; assay: Antifungal activity against Candida krusei isolated from neutropenic subjects with AML or MDS prior to initiation of fluconazole therapy assessed as maximum MIC by broth microdilution method
[7] = tested on: Pichia kudriavzevii; assay: Antifungal activity against Candida krusei isolated from HSCT recipients with acute or chronic GVHD receiving fluconazole by broth microdilution method
[8] = tested on: Nakaseomyces glabratus; assay: Antifungal activity against 43 days cultured Candida glabrata isolated from HSCT recipient with acute or chronic GVHD mouth receiving antifungal therapy for 168 days after 113 days of prophylaxis by broth microdilution method
[9] = tested on: Nakaseomyces glabratus; assay: Antifungal activity against 1 day cultured Candida glabrata isolated from neutropenic subject with AML or MDS stool receiving antifungal therapy for 25 days after 3 days of prophylaxis by broth microdilution method
[10] = tested on: Candida albicans; assay: Antifungal activity against Candida albicans isolated from HSCT recipient 462 with acute or chronic GVHD mouth after 112 days prophylaxis by broth microdilution method
[11] = tested on: Candida albicans; assay: Antifungal activity against Candida albicans isolated from neutropenic subjects with AML or MDS prior to initiation of fluconazole therapy assessed as maximum MIC by broth microdilution method
[12] = tested on: Candida albicans; assay: Antifungal activity against Candida albicans isolated from HSCT recipients with acute or chronic GVHD prior to initiation of posaconazole therapy assessed as maximum MIC by broth microdilution method
[13] = tested on: Candida albicans; assay: Antifungal activity against Candida albicans isolated from HSCT recipient 928 with acute or chronic GVHD mouth after 112 days prophylaxis by broth microdilution method
[14] = tested on: Nakaseomyces glabratus; assay: Antifungal activity against Candida glabrata isolated from HSCT recipients with acute or chronic GVHD receiving fluconazole by broth microdilution method
[15] = tested on: Nakaseomyces glabratus; assay: Antifungal activity against Candida glabrata isolated from HSCT recipient 186 with acute or chronic GVHD mouth after 112 days prophylaxis by broth microdilution method
[16] = tested on: Candida albicans; assay: Antifungal activity against 1 day cultured Candida albicans isolated from HSCT recipient with acute or chronic GVHD mouth after 2 days of prophylaxis by broth microdilution method
[17] = tested on: Nakaseomyces glabratus; assay: Antifungal activity against Candida glabrata isolated from HSCT recipients with acute or chronic GVHD prior to initiation of fluconazole therapy by broth microdilution method
[18] = tested on: Nakaseomyces glabratus; assay: Antifungal activity against 1 day cultured Candida glabrata isolated from HSCT recipient with acute or chronic GVHD mouth after 17 days of prophylaxis by broth microdilution method
[19] = tested on: Candida albicans; assay: Antifungal activity against Candida albicans isolated from neutropenic subjects with AML or MDS prior to initiation of fluconazole therapy by broth microdilution method
[20] = tested on: Nakaseomyces glabratus; assay: Antifungal activity against 14 days cultured Candida glabrata isolated from HSCT recipient with acute or chronic GVHD mouth after 17 days of prophylaxis by broth microdilution method
[21] = tested on: Nakaseomyces glabratus; assay: Antifungal activity against 111 days cultured Candida glabrata isolated from HSCT recipient with acute or chronic GVHD mouth receiving antifungal therapy for 143 days after 116 days of prophylaxis by broth microdilution method
[22] = tested on: Nakaseomyces glabratus; assay: Antifungal activity against 15 days cultured Candida glabrata isolated from HSCT recipient with acute or chronic GVHD mouth receiving antifungal therapy for 168 days after 113 days of prophylaxis by broth microdilution method
[23] = tested on: Nakaseomyces glabratus; assay: Antifungal activity against 60 days cultured Candida glabrata isolated from HSCT recipient with acute or chronic GVHD mouth receiving antifungal therapy for 75 days after 33 days of prophylaxis by broth microdilution method
[24] = tested on: Nakaseomyces glabratus; assay: Antifungal activity against Candida glabrata isolated from HSCT recipient 807 with acute or chronic GVHD mouth after 114 days prophylaxis by broth microdilution method
[25] = tested on: Candida albicans; assay: Antifungal activity against Candida albicans isolated from HSCT recipients with acute or chronic GVHD prior to initiation of fluconazole therapy by broth microdilution method
[26] = tested on: Candida albicans; assay: Antifungal activity against Candida albicans isolated from neutropenic subjects with AML or MDS prior to initiation of posaconazole therapy by broth microdilution method
[27] = tested on: Candida albicans; assay: Antifungal activity against Candida albicans isolated from HSCT recipients with acute or chronic GVHD prior to initiation of fluconazole therapy assessed as maximum MIC by broth microdilution method
[28] = tested on: Nakaseomyces glabratus; assay: Antifungal activity against 7 days cultured Candida glabrata isolated from neutropenic subject with AML or MDS stool receiving antifungal therapy for 37 days after 9 days of prophylaxis by broth microdilution method
[29] = tested on: Nakaseomyces glabratus; assay: Antifungal activity against Candida glabrata isolated from HSCT recipient 474 with acute or chronic GVHD mouth receiving antifungal drug after 124 days prophylaxis by broth microdilution method
[30] = tested on: Pichia kudriavzevii; assay: Antifungal activity against 13 days cultured Candida krusei isolated from invasive fungal infected subject blood after 12 days of prophylaxis by broth microdilution method
[31] = tested on: Saccharomyces cerevisiae; assay: Antifungal activity against Saccharomyces cerevisiae isolated from HSCT recipient 513 with acute or chronic GVHD mouth receiving antifungal drug after 112 days prophylaxis by broth microdilution method
[32] = tested on: Nakaseomyces glabratus; assay: Antifungal activity against Candida glabrata isolated from HSCT recipient 002 with acute or chronic GVHD mouth after 116 days prophylaxis by broth microdilution method
[33] = tested on: Nakaseomyces glabratus; assay: Antifungal activity against Candida glabrata isolated from neutropenic subject 1331 with AML or MDS pharynx after 21 days prophylaxis by broth microdilution method; settings: 504 h
[34] = tested on: Nakaseomyces glabratus; assay: Antifungal activity against Candida glabrata isolated from HSCT recipient 186 with acute or chronic GVHD mouth receiving antifungal drug after 112 days prophylaxis by broth microdilution method
[35] = tested on: Pichia kudriavzevii; assay: Antifungal activity against 8 days cultured Candida krusei isolated from neutropenic subject with AML or MDS stool after 12 days of prophylaxis by broth microdilution method
[36] = tested on: Nakaseomyces glabratus; assay: Antifungal activity against Candida glabrata isolated from HSCT recipient 002 with acute or chronic GVHD mouth receiving antifungal drug after 116 days prophylaxis by broth microdilution method
[37] = tested on: Nakaseomyces glabratus; assay: Antifungal activity against 59 days cultured Candida glabrata isolated from HSCT recipient with acute or chronic GVHD mouth receiving antifungal therapy for 75 days after 33 days of prophylaxis by broth microdilution method
[38] = tested on: Nakaseomyces glabratus; assay: Antifungal activity against Candida glabrata isolated from neutropenic subject 1497 with AML or MDS pharynx receiving antifungal drug after 61 days prophylaxis by broth microdilution method
[39] = tested on: Candida albicans; assay: Antifungal activity against Candida albicans isolated from HSCT recipient 462 with acute or chronic GVHD mouth receiving antifungal drug after 112 days prophylaxis by broth microdilution method

CCC(C)n1ncn(-c2ccc(N3CCN(c4ccc(OCC5COC(Cn6cncn6)(c6ccc(Cl)cc6Cl)O5)cc4)CC3)cc2)c1=O (stereo not given) [ITRACONAZOLE]
MIC [1]: 8 µg/mL (≈ 11.3 µM) | MIC [2]: 32 µg/mL | MIC [3]: 0.25 µg/mL (≈ 0.354 µM) | MIC [4]: 0.5 µg/mL | MIC [5]: 2 µg/mL (≈ 2.83 µM) | MIC [6]: 0.5 µg/mL | MIC50 [7]: 0.5 µg/mL (≈ 0.709 µM) | MIC90 [7]: 16 µg/mL (≈ 22.7 µM) | MIC [8]: 2 µg/mL (≈ 2.83 µM) | MIC [9]: 8 µg/mL (≈ 11.3 µM) | MIC [10]: 0.06 µg/mL (≈ 0.085 µM) | MIC [11]: 0.125 µg/mL | MIC [12]: 16 µg/mL | MIC [13]: < 0.015 µg/mL | MIC50 [14]: 1 µg/mL (≈ 1.42 µM) | MIC90 [14]: 16 µg/mL (≈ 22.7 µM) | MIC [15]: 0.5 µg/mL (≈ 0.709 µM) | MIC [16]: < 0.03 µg/mL | MIC50 [17]: 2 µg/mL (≈ 2.83 µM) | MIC90 [17]: 16 µg/mL (≈ 22.7 µM) | MIC [18]: > 8 µg/mL | MIC50 [19]: 0.015 µg/mL (≈ 0.0213 µM) | MIC90 [19]: 0.015 µg/mL (≈ 0.0213 µM) | MIC [20]: > 8 µg/mL | MIC [21]: > 8 µg/mL | MIC [22]: 4 µg/mL (≈ 5.67 µM) | MIC [23]: 4 µg/mL (≈ 5.67 µM) | MIC [24]: 0.5 µg/mL (≈ 0.709 µM) | MIC50 [25]: 0.03 µg/mL (≈ 0.0425 µM) | MIC90 [25]: 0.06 µg/mL (≈ 0.085 µM) | MIC50 [26]: 0.015 µg/mL (≈ 0.0213 µM) | MIC90 [26]: 0.03 µg/mL (≈ 0.0425 µM) | MIC [27]: 0.06 µg/mL | MIC [28]: 1 µg/mL (≈ 1.42 µM) | MIC [29]: 8 µg/mL (≈ 11.3 µM) | MIC [30]: 0.25 µg/mL (≈ 0.354 µM) | MIC [31]: 4 µg/mL (≈ 5.67 µM) | MIC [32]: 1 µg/mL (≈ 1.42 µM) | MIC [33]: 1 µg/mL (≈ 1.42 µM) | MIC [34]: 2 µg/mL (≈ 2.83 µM) | MIC [35]: 0.25 µg/mL (≈ 0.354 µM) | MIC [36]: > 8 µg/mL | MIC [37]: 1 µg/mL (≈ 1.42 µM) | MIC [38]: 8 µg/mL (≈ 11.3 µM) | MIC [39]: 0.03 µg/mL (≈ 0.0425 µM)

OC(Cn1cncn1)(Cn1cncn1)c1ccc(F)cc1F [FLUCONAZOLE]
MIC [1]: > 64 µg/mL | MIC [2]: 64 µg/mL | MIC [3]: > 64 µg/mL | MIC [4]: 32 µg/mL | MIC [5]: > 64 µg/mL | MIC [6]: 32 µg/mL | MIC50 [7]: 64 µg/mL (≈ 209 µM) | MIC90 [7]: 64 µg/mL (≈ 209 µM) | MIC [8]: 64 µg/mL (≈ 209 µM) | MIC [9]: 16 µg/mL (≈ 52.2 µM) | MIC [10]: 8 µg/mL (≈ 26.1 µM) | MIC [11]: 1 µg/mL | MIC [12]: 64 µg/mL | MIC [13]: < 0.125 µg/mL | MIC50 [14]: 32 µg/mL (≈ 104 µM) | MIC90 [14]: 64 µg/mL (≈ 209 µM) | MIC [15]: 8 µg/mL (≈ 26.1 µM) | MIC [16]: < 0.12 µg/mL | MIC50 [17]: 16 µg/mL (≈ 52.2 µM) | MIC90 [17]: 64 µg/mL (≈ 209 µM) | MIC [18]: > 64 µg/mL | MIC50 [19]: 0.125 µg/mL (≈ 0.408 µM) | MIC90 [19]: 0.25 µg/mL (≈ 0.816 µM) | MIC [20]: > 64 µg/mL | MIC [21]: 64 µg/mL (≈ 209 µM) | MIC [22]: 64 µg/mL (≈ 209 µM) | MIC [23]: > 64 µg/mL | MIC [24]: 16 µg/mL (≈ 52.2 µM) | MIC50 [25]: 0.25 µg/mL (≈ 0.816 µM) | MIC90 [25]: 1 µg/mL (≈ 3.27 µM) | MIC50 [26]: 0.25 µg/mL (≈ 0.816 µM) | MIC90 [26]: 0.25 µg/mL (≈ 0.816 µM) | MIC [27]: 16 µg/mL | MIC [28]: 8 µg/mL (≈ 26.1 µM) | MIC [29]: 64 µg/mL (≈ 209 µM) | MIC [30]: > 64 µg/mL | MIC [31]: 32 µg/mL (≈ 104 µM) | MIC [32]: 16 µg/mL (≈ 52.2 µM) | MIC [33]: 8 µg/mL (≈ 26.1 µM) | MIC [34]: 32 µg/mL (≈ 104 µM) | MIC [35]: > 64 µg/mL | MIC [36]: 64 µg/mL (≈ 209 µM) | MIC [37]: 16 µg/mL (≈ 52.2 µM) | MIC [38]: > 64 µg/mL | MIC [39]: 8 µg/mL (≈ 26.1 µM)
